Measurements: publication PMC13193388, “Dimerization‐dependent NOTCH receptor transactivation unveils a class of highly selective NOTCH signalling inhibitors” (The Febs Journal, 2025)
Entries after “also recorded” stand apart in the source; their conditions may differ.

Assays:
NOTCH3-ECD = target: T1, NOTCH3-ECD (Homo sapiens, UniProt Q9UM47); experiment: SPR peptide binding to immobilized recombinant NOTCH3-ECD
T1 construct: we purified the complete (recombinant) N3 ECD from human tissue culture cells; made in house; host or cells: PEC.3.30 (modified Per.E2A human cells), purified from culture supernatant
T1 sequence (Q9UM47 40-1643 limits assumed): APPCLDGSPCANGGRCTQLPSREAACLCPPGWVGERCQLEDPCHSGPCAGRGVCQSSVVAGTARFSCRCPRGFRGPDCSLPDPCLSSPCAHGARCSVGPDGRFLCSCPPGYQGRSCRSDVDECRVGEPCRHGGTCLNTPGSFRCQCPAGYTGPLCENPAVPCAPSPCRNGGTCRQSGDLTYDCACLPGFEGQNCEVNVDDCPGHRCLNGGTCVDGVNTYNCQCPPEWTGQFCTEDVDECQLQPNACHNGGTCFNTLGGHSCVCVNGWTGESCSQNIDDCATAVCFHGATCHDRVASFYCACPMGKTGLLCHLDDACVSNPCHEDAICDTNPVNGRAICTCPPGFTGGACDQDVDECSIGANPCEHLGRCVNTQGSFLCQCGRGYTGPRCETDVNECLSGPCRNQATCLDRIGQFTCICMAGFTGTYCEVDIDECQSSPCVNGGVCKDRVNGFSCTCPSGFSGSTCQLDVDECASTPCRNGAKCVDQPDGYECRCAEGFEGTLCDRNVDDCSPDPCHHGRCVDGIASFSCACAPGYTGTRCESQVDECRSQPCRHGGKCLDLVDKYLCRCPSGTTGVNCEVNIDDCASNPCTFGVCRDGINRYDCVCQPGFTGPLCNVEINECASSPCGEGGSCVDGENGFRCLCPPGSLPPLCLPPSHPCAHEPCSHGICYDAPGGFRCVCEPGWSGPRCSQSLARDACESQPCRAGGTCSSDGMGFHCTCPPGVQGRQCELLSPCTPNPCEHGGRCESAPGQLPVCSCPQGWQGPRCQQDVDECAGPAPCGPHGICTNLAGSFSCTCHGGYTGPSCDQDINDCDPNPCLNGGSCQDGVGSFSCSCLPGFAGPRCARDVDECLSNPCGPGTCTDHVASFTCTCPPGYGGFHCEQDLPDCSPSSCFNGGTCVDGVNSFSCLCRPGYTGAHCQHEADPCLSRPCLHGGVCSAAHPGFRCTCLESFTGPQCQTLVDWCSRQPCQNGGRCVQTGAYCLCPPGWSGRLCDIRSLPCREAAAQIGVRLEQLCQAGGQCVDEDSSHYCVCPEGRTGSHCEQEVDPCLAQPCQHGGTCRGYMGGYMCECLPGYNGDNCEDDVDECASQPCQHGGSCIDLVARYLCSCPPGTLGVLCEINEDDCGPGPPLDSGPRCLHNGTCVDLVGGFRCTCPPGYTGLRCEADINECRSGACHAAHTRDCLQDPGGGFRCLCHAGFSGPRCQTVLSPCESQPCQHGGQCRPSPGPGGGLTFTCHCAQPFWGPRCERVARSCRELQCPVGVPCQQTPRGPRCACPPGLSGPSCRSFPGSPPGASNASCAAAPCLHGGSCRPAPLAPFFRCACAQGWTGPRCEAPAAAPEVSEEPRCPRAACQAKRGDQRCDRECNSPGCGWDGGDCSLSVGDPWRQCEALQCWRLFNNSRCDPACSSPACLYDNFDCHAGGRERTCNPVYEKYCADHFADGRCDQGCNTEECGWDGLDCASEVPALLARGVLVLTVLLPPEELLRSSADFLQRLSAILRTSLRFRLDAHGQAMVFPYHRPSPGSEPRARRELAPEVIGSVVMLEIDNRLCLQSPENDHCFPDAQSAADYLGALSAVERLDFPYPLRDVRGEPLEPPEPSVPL
Experimental: (§1) The NOTCH3‐ECD protein was produced using PEC.3.30, which is modified Per.E2A cells. DMEM cell supernatant containing the NOTCH3‐ECD protein was collected for purification. The supernatant was loaded onto a HisTrap high‐performance (HP) column (Cytiva, Uppsala, Sweden) and eluted with a gradient buffer that included 500 mM imidazole, 25 mM HEPES at pH 7.5 and 500 mM NaCl. The pooled fractions were concentrated using a 50 000 molecular weight cut‐off (MWCO) centrifugal filter (Millipore, Merck KGaA, Darmstadt, Germany), resulting in a buffer of 10 mM imidazole, 25 mM HEPES at pH 7.5 and 100 mM NaCl. The concentrated protein solution was subsequently loaded onto a Superdex 200 16/600 gel filtration column (Cytiva, Uppsala, Sweden), which was equilibrated with 25 mM HEPES at pH 7.5 and 100 mM NaCl. Similar yields of purified protein were obtained across all samples. The purified proteins were snap‐frozen in liquid nitrogen immediately after purification and stored at −80 °C.
Peptide binding to the NOTCH3‐ECD protein using SPR was performed using a Biacore T200. The NOTCH3‐ECD protein was immobilized onto a Biacore NTA Series S Sensor Chip (Cytiva), at a concentration of 0.1 μg·μL^−1 using Nickel‐NTA capture‐coupling, resulting in approximately 3500 RU of immobilized protein. Peptides were introduced using the ‘Eject rack’ function, followed by analysis. […]

N3 ECD homodimer = experiment: Nondenaturing gel: disruption of purified N3 ECD homodimer; assay type: biochemical, human; details: nondenaturing acrylamide gel, purified HIS-tagged N3 ECD; n = 3
Experimental: as §1

N3 receptor [1] = experiment: N3 receptor dimerization (immobilized HIS-N3 with HA-N3, western blot); assay type: biochemical, human; details: peptides 10 μM unless otherwise stated, n = 3
Experimental: (§2) Human embryonic kidney (HEK) 293 T cells (RRID:CVCL_0063) were cultured in Dulbecco's Modified Eagle Medium (DMEM) (Gibco, Grand Island, NY, USA) supplemented with 10% fetal bovine serum (FBS) (Gibco). This cell line was obtained from the American Type Culture Collection (ATCC, Manassas, VA, USA). T‐ALL cell lines (kindly provided by Professor Jan Cools – VIB, Leuven): MOLT4 (RRID:CVCL_0013), ALL SIL (RRID:CVCL_1805), DND‐41 (RRID:CVCL_2022), HPB‐ALL (RRID:CVCL_1820), SUP‐T1 (RRID:CVCL_1714) and JURKAT (RRID:CVCL_0065), were cultured in Roswell Park Memorial Institute (RPMI) 1640 medium (Gibco) supplemented with 10% FBS (Gibco). […] RNA isolation, first‐strand cDNA synthesis and analysis of expression of transcripts by quantitative (q) PCR were performed as described previously. […] Expression of these proteins was determined using antibodies directed against either the coding region of the protein or the epitope tag. […]
(§3) Domains for recombinant protein production were cloned into the pET 28a vector in‐frame to an N‐terminal HIS6 epitope. […] Protein yields were determined by Bradford assay (Bio‐Rad, Hercules, CA, USA), and relative protein integrity and purity were determined by SDS/PAGE and Colloidal Blue staining (Invitrogen, Carlsbad, CA, USA). […] Proteins were separated by SDS/PAGE and associated proteins were detected by western blotting.

N3 receptor [2] = experiment: Ligand-dependent N3 receptor cleavage (western blot); assay type: cell-based, human; details: 293 T cells, recombinant DLL1, peptides 10 μM unless otherwise stated
Experimental: (§4) Human embryonic kidney (HEK) 293 T cells (RRID:CVCL_0063) were cultured in Dulbecco's Modified Eagle Medium (DMEM) (Gibco, Grand Island, NY, USA) supplemented with 10% fetal bovine serum (FBS) (Gibco). This cell line was obtained from the American Type Culture Collection (ATCC, Manassas, VA, USA). T‐ALL cell lines (kindly provided by Professor Jan Cools – VIB, Leuven): MOLT4 (RRID:CVCL_0013), ALL SIL (RRID:CVCL_1805), DND‐41 (RRID:CVCL_2022), HPB‐ALL (RRID:CVCL_1820), SUP‐T1 (RRID:CVCL_1714) and JURKAT (RRID:CVCL_0065), were cultured in Roswell Park Memorial Institute (RPMI) 1640 medium (Gibco) supplemented with 10% FBS (Gibco). Cells were maintained in a 5% CO2, 37 °C humidified incubator, tested monthly for mycoplasma contamination using a MycoAlert kit (Lonza, Walkersville, MD, USA), and checked for authenticity, in the last 3 years, by an in‐house service using short tandem repeat (STR) profiling. Transfections, lentivirus production and cell infections, western blotting and co‐immunoprecipitations have been described previously. […] RNA isolation, first‐strand cDNA synthesis and analysis of expression of transcripts by quantitative (q) PCR were performed as described previously. […] Expression of these proteins was determined using antibodies directed against either the coding region of the protein or the epitope tag. […]

N3 receptor [3] = experiment: N3 transactivation luciferase reporter assay; assay type: cell-based, human
Experimental: (§5) Reporter assays were performed as previously described. Briefly, stable cell lines expressing epitope‐tagged ligands and receptors were established via infection of cells with lentiviruses harbouring the appropriate ligand/receptor cDNA followed by selection with the encoded antibiotic (puromycin or neomycin). For transactivation assays, cells co‐expressing receptor and reporter were cocultured with cells stably expressing ligand alone (to enable transactivation). […] For each experiment, cells were seeded in triplicate in 12‐well plates. The NOTCH luciferase reporter harboured 10× Recombination Signal Binding Protein for Immunoglobulin kappa J (RBPJ) consensus DNA‐binding sites, and was cotransfected with thymidine kinase promoter‐driven Renilla luciferase control plasmid. Additionally, transfection efficiencies (routinely > 90%) were determined through visualization of cotransfected plasmid encoding the Tomato fluorescence reporter. Cells were lysed 36 h postplating, and luciferase activity was measured using a luciferase assay substrate (Promega). Luciferase activity was normalized by measuring Renilla luciferase activity (Promega). Where indicated, assays were performed in the presence or absence of 10 μM DAPT (Sigma‐Aldrich, St. Louis, MO, USA). Receptor and ligand protein levels were determined by western blotting. Experiments were performed three times. […]

N3 receptor [4] = experiment: N3 downstream NOTCH target gene expression (real-time qPCR); assay type: cell-based, human; details: 293 T cells with HA-N3, recombinant DLL1, 3 h, n = 3
Experimental: as §4

N3 receptor [5] = experiment: Cell surface ligand-N3 receptor binding assay; assay type: cell-based, human; details: 293 T cells stably expressing HA-tagged N3, crosslinked, western blot; n = 3
Experimental: (§6) Confluent 10‐cm dishes of 293 T cells stably expressing HA epitope‐tagged NOTCH receptors were washed with ice‐cold phosphate buffered saline (PBS)/bovine serum albumen (BSA) (1 mg·mL^−1). Cells were stimulated with 50 μL of ligand (0.5 mg·mL^−1) in the presence of 1.5 mL of PBS/BSA (1 mg·mL^−1) for 1 h, with gentle shaking, at 4 °C. Cells were washed once with PBS. Cells were incubated with crosslinkers in the presence of 2 mL of ice‐cold PBS for 15 min, with gentle shaking at 4 °C: 0.27 μM disuccinimidyl suberate (DSS) (Pierce, Rockford, IL, USA) and 0.07 μM bis‐sulfosuccinimidyl suberate (BS3) (Pierce). Cells were washed once with ice‐cold detachment buffer (10 mM Tris–HCl pH 7.4, 1 mM EDTA pH 7.4, 10% glycerol), scraped off the plates in 1 mL of detachment buffer and transferred to Eppendorf tubes. Cell pellets were lysed in 1 mL of solubilization buffer (125 mM NaCl, 10 mM Tris–HCl pH 7.4, 1 mM EDTA pH 7.4, 1% Triton X‐100) on ice for 30 min and centrifuged at 13000 r.p.m. for 10 min. Supernatants were incubated with HA antibody (Covance, Princeton, NJ, USA) overnight at 4 °C. 50 μL of washed (4×) protein A/G beads (50% solution) was added, and samples were incubated for 45 min at 4 °C. The beads were washed four times with solubilization buffer. 50 μL of sample buffer was added and samples were boiled for 5–10 min prior to gel electrophoresis. […]

N2 receptor [6] = experiment: Ligand-dependent N2 receptor cleavage (western blot); assay type: cell-based, human; details: 293 T cells with HA-N2, recombinant DLL1; n = 3
Experimental: as §4

N2 receptor [7] = experiment: N2 receptor dimerization (immobilized HIS-N2 with HA-N2, western blot); assay type: biochemical, human; details: HIS-N2 on nickel beads with HA-N2, western blot; n = 3
Experimental: as §2, §3

N2 receptor [8] = experiment: Cell surface ligand-N2 receptor binding assay; assay type: cell-based, human; details: Fig. 4D; n = 3
Experimental: as §6

N2 receptor [9] = experiment: N2 transactivation luciferase reporter assay; assay type: cell-based, human; details: Fig. 4A,E, n = 3
Experimental: as §5

NOTCH receptors = experiment: Endogenous HEY expression in 293 T cells expressing NOTCH receptors (real-time qPCR); assay type: cell-based, human; details: 3 h, DAPT 20 μM, n = 3 (Fig. 4F)
Experimental: as §4

binding to N3 ECD (NOTCH3-ECD; control peptide with motif core mutated to glycine)	K D (range in words) (NOTCH3-ECD; pure recombinant N3 ECD purified from human cells)	inhibition of downstream NOTCH target genes (N3) (N3 receptor [4])	effect on N2 receptor transactivation / downstream gene activation (N2 receptor [9])	Sequence	disruption of N3 ECD homodimer (N3 ECD homodimer)	inhibition of N3 receptor dimerization (N3 receptor [1])	inhibition of ligand-dependent N3 receptor cleavage (N3 receptor [2])	selectivity for N3 over N2 and N1 (N3 receptor [3]; Fig. 4E)	inhibition of N3 transactivation (NOTCH reporter) (N3 receptor [3]; coculture with ligand cells, lysed 36 h postplating, peptides 10 μM unless otherwise stated, n = 3)	block of stable ligand-receptor binding at the cell surface (N3) (N3 receptor [5])	effect on N2 receptor cleavage (N2 receptor [6])	effect on N2 receptor dimerization (N2 receptor [7])	effect on stable N2 receptor-ligand binding at the cell surface (N2 receptor [8])	suppression of NOTCH-driven gene expression compared to DAPT (NOTCH receptors)
failed to bind efficiently to the N3 ECD	–	–	–	EKYGGGHFADGR [control peptide, control peptide (…), core of the dimerization motif mutated (to glycine), reference compound]	–	–	–	–	–	–	–	–	–	–
–	low nM range	robustly inhibit	little detectable effect	EKYCADHFADGR [N34, N3 peptide (…) centred on the helix encompassing the core dimerization motif]	disrupted	robustly inhibit	robustly inhibit	exquisite selectivity for N3 (and not N2 or N1	robustly inhibit; also recorded: inhibited N3 receptor activity	efficiently blocked	little detectable effect	little detectable effect	little detectable effect	as efficiently as the generic gamma secretase inhibitor (GSI), DAPT
